Columns and labels:
arginase 1 = assay: Arginase 1 expression in HCAE cells with or without TNFα, western blot; format: cell-based, human; details: TNFα treatment
Description: (§1) Human coronary artery endothelial cells (HCAE cells, Lonza, Walkersville, Md.) were cultured in 5% CO2 at 37° C. in endothelial cell growth medium (EGM) supplemented with 2% fetal bovine serum and Single Quot supplements (Clonetics, San Diego, Calif.; containing epidermal growth factor, hydrocortisone, vascular endothelial growth factor, fibroblast growth factor, insulin growth factor, ascorbic acid, heparin, gentamycin, and amphotericin B). Cells were used between passages 4 and 6 for these studies. HCAE cells were plated at a density of 50,000 cells per well in 12-well plates and were grown for 3 days to reach confluency. […] Cells were then incubated in normoxic or 1% hypoxic conditions for the indicated times.
(§2) The cell lysates were subjected to SDS-PAGE in a 10% polyacrylamide gel and transferred to a nitrocellulose membrane (0.2-μm, Invitrogen). After blocking with 5% milk, the membrane was incubated overnight at 4° C. with primary antibodies against phospho-eNOS (Ser 1177) and eNOS (Cell Signaling Technology, Beverly, Mass.), human type-1 arginase (clone 9C5) (Cell Sciences, Canton, Mass.), or GAPDH (Santa Cruz Biotechnology, Santa Cruz, Calif.). HRP-conjugated anti-mouse or anti-rabbit antibodies (Cell Signaling Technology) were used as secondary antibodies (HRP, horseradish peroxidase). […]

eNOS [1] = assay: eNOS expression and S1177 phosphorylation in HCAE cells, western blot; format: cell-based, human; details: 24 h
Description: as §1, §2

eNOS mRNA = eNOS mRNA in HCAE cells, RT-PCR and SYBR Green real-time PCR; format: cell-based, human
Description: Human coronary artery endothelial cells (HCAE cells, Lonza, Walkersville, Md.) were cultured in 5% CO2 at 37° C. in endothelial cell growth medium (EGM) supplemented with 2% fetal bovine serum and Single Quot supplements (Clonetics, San Diego, Calif.; containing epidermal growth factor, hydrocortisone, vascular endothelial growth factor, fibroblast growth factor, insulin growth factor, ascorbic acid, heparin, gentamycin, and amphotericin B). Cells were used between passages 4 and 6 for these studies. HCAE cells were plated at a density of 50,000 cells per well in 12-well plates and were grown for 3 days to reach confluency. […] Cells were then incubated in normoxic or 1% hypoxic conditions for the indicated times. […] For RNA extraction, HCAE cells were cultured in 6-well plates.
Total RNA was isolated using an Ambion isolation kit as described by the manufacturer.
RT-PCR for eNOS was performed by Ready-to-Go RT-PCR Beads (Amersham Biosciences) using a two-step protocol. […]
Samples were coded to provide blinded analysis. […] Quantitative PCR amplifications were done using 2 μl of cDNA in a total volume of 25 μl using SYBR green probes in the SYBR Green PCR Master Mix (ABI). […] The reverse-transcribed cDNA sample cycle threshold values were determined from triplicate samples and normalized to the 18S “housekeeping” gene.

[2] = tested on: Human Lung Microvascular Endothelial Cells (HLME); assay: Survival of serum-deprived HLME cells; format: cell-based; details: serum-deprivation
VEGF mRNA = VEGF mRNA expression in HCMVE cells, real-time PCR; format: cell-based, human; details: VEGF 10 ng/ml, 24 h
Source text: Data from one experiment performed in triplicate are shown in FIG. 11 as mean±SD. *p<0.01 compared to control (C) cells in normoxia. ^#p<0.01 compared to control (C) cells in hypoxia.

[3] = tested on: Human coronary artery endothelial (HCAE) cells; assay: Endothelial cell invasion through Matrigel toward VEGF; format: cell-based; details: normoxic or hypoxic, VEGF 10 ng/ml, no TP508
Description: Endothelial cell invasion assays were performed using BD BioCoat™ Angiogenesis System (BD Bioscience, Bedford, Mass.) which utilizes FluoroBlok inserts coated with BD Matrigel Matrix (BD Bioscience, Bedford, Mass.). […] Endothelial cell invasion was performed in normoxic or hypoxic (1% O2) conditions. After 22 hours of incubation, cells were labeled post-invasion with Calcein AM and measured by detecting the fluorescence of the cells that migrated to the underside of insert membrane.

eNOS [4] = assay: VEGF-induced activation of eNOS in HCAE cells, western blot; format: cell-based, human; details: normoxic HCAE cells, VEGF 50 ng/ml, 1 minute
Source text: The membrane was re-probed with anti-GAPDH (glyceraldehyde-3-phosphate dehydrogenase) antibody to show equal protein loading.

[5] = tested on: Human coronary artery endothelial (HCAE) cells; assay: Transmembrane migration of endothelial cells toward VEGF (FluoroBlok inserts); format: cell-based; details: hypoxic, VEGF 10 ng/ml as chemoattractant, 22 h
Description: Transmembrane cell migration assays were performed using BD FluoroBlok inserts (BD Bioscience, Bedford, Mass.) as described by the vendor. […] (V) or medium alone (C) was added to the lower chamber of the insert plate as a chemoattractant. Endothelial migration was performed in normoxic or 1% hypoxic conditions. After a 22-hour incubation, cells were labeled post-migration with Calcein AM and measured by detecting the fluorescence of the cells that migrated to the underside of the insert membrane.

| Substance | expression of arginase 1 (ARG1) relative to control cultures (arginase 1) | reduction of eNOS expression relative to normoxic controls (eNOS [1]) | eNOS mRNA expression (RT-PCR) (eNOS mRNA; 6 h stimulation, 25 or 30 cycles, relative to controls) | decrease of eNOS mRNA level (eNOS mRNA; 24 h, real-time PCR) | cell survival, agent alone [2] | VEGF mRNA in hypoxic cells (VEGF mRNA; hypoxic) | decrease of VEGF mRNA expression compared to control cells (VEGF mRNA; normoxic) | invasion of control endothelial cells through Matrigel toward human VEGF [3] | phosphorylation of eNOS on serine 1177, maximum (eNOS [4]) | migration of control endothelial cells relative to media control cells [5] |
| --- | --- | --- | --- | --- | --- | --- | --- | --- | --- | --- |
| TNFα | significant increase | 45% | drastically decreased | ~80% | – | – | – | – | – | – |
| VEGF | – | – | – | – | increased survival at lower levels | no effect, or decreased | 2 fold | not stimulated | 2 fold | ~150% |

Reference: patent US20110110920A1, “METHOD OF TREATING PERIPHERAL ARTERIAL DISEASE” (priority 2008, published 2011)
